In brackets after ≈: the same amount, converted by molar mass. Activity calls are given as the source filed them. The calls are words filed in the database; no cut-off is given here.
Legend:
[1] = Dissociation constant, pKa of the compound; type: physicochemical
hERG (KCNH2) [2] = biological target: T1, hERG (KCNH2) (Homo sapiens, UniProt Q12809); assay: in vitro; conditions: HEK293 cells expressing hERG
Description: Inhibition of human ERG expressed in HEK293 cells at 3 uM by patch clamp assay

hERG (KCNH2) [3] = biological target: T1, hERG (KCNH2); assay: in vitro; conditions: HEK293 cells expressing hERG; remark: listed apart in the source
Description: Inhibition of human ERG expressed in HEK293 cells at 30 uM by patch clamp assay

physchem = conditions: buffer, pH 7.4
HCT-116 [4] = assay: Cytotoxicity against human HCT116 cells at 100 uM by Alamar blue assay; type: functional
HCT-116 [5] = assay: Cytotoxicity against human HCT116 cells at 30 uM by Alamar blue assay; type: functional, cell-based
[6] = Intrinsic clearance in mouse liver S9 fraction; type: ADME, subcellular; conditions: s9
[7] = Solubility of the compound in phosphate buffer at 15 mg at pH 6.5; type: physicochemical
[8] = Protein binding in human plasma after 6 hrs by equilibrium dialysis method; type: ADME, cell-free; conditions: read-out: PPB (converted)
[9] = Solubility of the compound in phosphate buffer at 15 mg at pH 5.5; type: physicochemical
[10] = Chemical stability of the compound after 24 hrs; type: physicochemical
[11] = Solubility of the compound in acetate buffer at 15 mg at pH 5.5; type: physicochemical
[12] = Solubility of the compound in lactate buffer at 15 mg at pH 4.2; type: physicochemical
[13] = Chemical stability of the compound after 48 hrs; type: physicochemical
[14] = Thermal stability of the compound at 80 degC after 24 hrs; type: physicochemical
[15] = Chemical stability of the compound after 144 hrs; type: physicochemical
HCT-116 [16] = assay: Induction of apoptosis in human HCT116 cells assessed as reduction of CDK4 level at 30 nM after 18 hrs by immunoblotting; type: functional, cell-based
[17] = Oral bioavailability in BALB/c mouse; type: ADME, organism-based; conditions: in vivo
[18] = Half life in human HCT116 cells xenografted BALB/c mouse tumor at 60 mg/kg, ip; type: ADME, organism-based, Neoplasm, HCT-116; design: dose 60 mg/kg, route intraperitoneal
HCT-116 [19] = assay: Antitumor activity against human HCT116 cells xenografted in BALB/c mouse assessed as inhibition of tumor growth at 60 mg/kg, ip qd for 3 days then no dose for 3 days for four dosing cycles measured on day 21; type: functional; conditions: HCT-116, ip, route intraperitoneal
[20] = Volume of distribution at steady state in BALB/c mouse plasma at 2 to 10 mg/kg, iv; type: ADME, organism-based; design: dose 2-10 mg/kg, route intravenous; conditions: read-out: Vdss
HCT-116 [21] = assay: Induction of apoptosis in human HCT116 cells assessed as upregulation of Hsp70 level at 10 nM after 18 hrs by immunoblotting; type: functional, cell-based
CYP2C9 = CYP2C9 (Homo sapiens, UniProt P11712); assay: Inhibition of CYP2C9 at 10 uM; type: ADME
[22] = Protein binding in mouse plasma after 6 hrs by equilibrium dialysis method; type: ADME, cell-free; conditions: read-out: PPB (converted)
CYP2C19 = CYP2C19 (Homo sapiens, UniProt P33261); assay: Inhibition of CYP2C19 at 10 uM; type: ADME
[23] = Half life in BALB/c mouse plasma at 2 to 10 mg/kg, iv; type: ADME, organism-based; design: dose 2-10 mg/kg, route intravenous
[24] = Half life in BALB/c mouse blood at 60 mg/kg, ip; type: ADME, organism-based; design: dose 60 mg/kg, route intraperitoneal
HCT-116 [25] = assay: Antitumor activity against human HCT116 cells xenografted in BALB/c mouse assessed as inhibition of tumor growth at 60 mg/kg, ip qd for 3 days then no dose for 3 days for four dosing cycles measured on day 21 relative to control; type: functional; conditions: HCT-116, ip, route intraperitoneal
[26] = Clearance in BALB/c mouse plasma at 2 to 10 mg/kg, iv; type: ADME, organism-based; design: dose 2-10 mg/kg, route intravenous
[27] = Half life in BALB/c mouse muscle at 60 mg/kg, ip; type: ADME, organism-based, Muscle tissue; design: dose 60 mg/kg, route intraperitoneal
HCT-116 [28] = assay: Induction of apoptosis in human HCT116 cells assessed as reduction of Raf-1 level at 30 nM after 18 hrs by immunoblotting; type: functional, cell-based
CYP3A4 = CYP3A4 (Homo sapiens, UniProt P08684); assay: Inhibition of CYP3A4 at 10 uM; type: ADME
Cytochrome P450 2C9 = Cytochrome P450 2C9 (Homo sapiens, UniProt P11712); assay: Binding affinity to CYP2C9; type: ADME
Cytochrome P450 2C19 = Cytochrome P450 2C19 (Homo sapiens, UniProt P33261); assay: Binding affinity to CYP2C19; type: ADME
Sequence of Cytochrome P450 2C19 (P33261 whole entry): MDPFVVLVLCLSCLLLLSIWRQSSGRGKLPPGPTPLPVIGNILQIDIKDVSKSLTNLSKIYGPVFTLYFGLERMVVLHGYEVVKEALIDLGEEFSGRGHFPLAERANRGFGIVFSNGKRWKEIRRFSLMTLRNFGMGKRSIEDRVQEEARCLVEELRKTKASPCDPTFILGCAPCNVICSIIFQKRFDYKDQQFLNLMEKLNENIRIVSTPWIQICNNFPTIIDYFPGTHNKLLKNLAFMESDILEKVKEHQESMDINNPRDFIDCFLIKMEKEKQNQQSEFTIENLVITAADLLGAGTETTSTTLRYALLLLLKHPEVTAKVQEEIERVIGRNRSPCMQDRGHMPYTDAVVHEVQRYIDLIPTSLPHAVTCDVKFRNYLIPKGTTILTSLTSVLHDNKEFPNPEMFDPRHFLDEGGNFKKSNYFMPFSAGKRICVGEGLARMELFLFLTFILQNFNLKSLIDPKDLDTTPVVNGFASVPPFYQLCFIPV

T1 sequence (Q12809 whole entry): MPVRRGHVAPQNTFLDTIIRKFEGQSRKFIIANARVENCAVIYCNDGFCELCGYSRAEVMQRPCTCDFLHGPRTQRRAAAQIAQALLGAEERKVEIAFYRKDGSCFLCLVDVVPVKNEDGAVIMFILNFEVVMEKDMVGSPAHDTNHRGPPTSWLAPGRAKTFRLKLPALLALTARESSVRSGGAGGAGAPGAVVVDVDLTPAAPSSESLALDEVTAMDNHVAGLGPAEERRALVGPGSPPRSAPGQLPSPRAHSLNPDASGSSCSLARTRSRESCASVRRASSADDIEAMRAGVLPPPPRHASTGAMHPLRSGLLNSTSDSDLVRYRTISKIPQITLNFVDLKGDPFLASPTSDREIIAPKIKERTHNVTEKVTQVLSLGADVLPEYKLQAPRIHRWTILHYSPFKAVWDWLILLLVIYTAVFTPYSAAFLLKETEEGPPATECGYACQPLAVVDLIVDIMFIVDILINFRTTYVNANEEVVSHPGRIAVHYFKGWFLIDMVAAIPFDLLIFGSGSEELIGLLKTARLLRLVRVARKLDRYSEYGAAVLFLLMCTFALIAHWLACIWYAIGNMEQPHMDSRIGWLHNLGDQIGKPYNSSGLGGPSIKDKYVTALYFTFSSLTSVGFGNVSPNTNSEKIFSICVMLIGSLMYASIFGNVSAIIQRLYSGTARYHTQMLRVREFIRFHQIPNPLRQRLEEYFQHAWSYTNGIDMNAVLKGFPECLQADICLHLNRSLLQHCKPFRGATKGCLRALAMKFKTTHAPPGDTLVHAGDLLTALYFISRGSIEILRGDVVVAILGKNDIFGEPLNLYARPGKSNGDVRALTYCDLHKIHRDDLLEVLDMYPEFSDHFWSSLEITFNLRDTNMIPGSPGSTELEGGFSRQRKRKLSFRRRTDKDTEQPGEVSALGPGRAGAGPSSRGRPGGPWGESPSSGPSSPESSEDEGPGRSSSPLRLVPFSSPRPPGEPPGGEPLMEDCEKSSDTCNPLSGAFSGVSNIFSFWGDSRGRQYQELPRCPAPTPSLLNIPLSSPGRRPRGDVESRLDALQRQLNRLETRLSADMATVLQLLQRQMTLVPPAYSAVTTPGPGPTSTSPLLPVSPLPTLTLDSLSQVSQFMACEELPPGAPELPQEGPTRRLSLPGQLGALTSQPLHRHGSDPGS
Sequence of CYP3A4 (P08684 whole entry): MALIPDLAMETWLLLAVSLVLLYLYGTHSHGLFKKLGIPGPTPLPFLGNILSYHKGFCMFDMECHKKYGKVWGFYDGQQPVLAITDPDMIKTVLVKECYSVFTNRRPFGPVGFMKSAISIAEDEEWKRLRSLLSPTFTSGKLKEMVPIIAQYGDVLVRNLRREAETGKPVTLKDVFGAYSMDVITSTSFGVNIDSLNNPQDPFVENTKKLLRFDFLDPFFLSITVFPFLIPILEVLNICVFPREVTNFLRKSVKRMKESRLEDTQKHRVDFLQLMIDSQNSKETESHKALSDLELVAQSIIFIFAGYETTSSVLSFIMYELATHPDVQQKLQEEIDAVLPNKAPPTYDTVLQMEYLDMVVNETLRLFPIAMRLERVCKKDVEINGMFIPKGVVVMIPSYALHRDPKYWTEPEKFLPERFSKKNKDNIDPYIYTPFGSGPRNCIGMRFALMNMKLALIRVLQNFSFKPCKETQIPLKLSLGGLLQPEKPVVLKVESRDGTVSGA
Sequence of Cytochrome P450 2C9 (P11712 whole entry): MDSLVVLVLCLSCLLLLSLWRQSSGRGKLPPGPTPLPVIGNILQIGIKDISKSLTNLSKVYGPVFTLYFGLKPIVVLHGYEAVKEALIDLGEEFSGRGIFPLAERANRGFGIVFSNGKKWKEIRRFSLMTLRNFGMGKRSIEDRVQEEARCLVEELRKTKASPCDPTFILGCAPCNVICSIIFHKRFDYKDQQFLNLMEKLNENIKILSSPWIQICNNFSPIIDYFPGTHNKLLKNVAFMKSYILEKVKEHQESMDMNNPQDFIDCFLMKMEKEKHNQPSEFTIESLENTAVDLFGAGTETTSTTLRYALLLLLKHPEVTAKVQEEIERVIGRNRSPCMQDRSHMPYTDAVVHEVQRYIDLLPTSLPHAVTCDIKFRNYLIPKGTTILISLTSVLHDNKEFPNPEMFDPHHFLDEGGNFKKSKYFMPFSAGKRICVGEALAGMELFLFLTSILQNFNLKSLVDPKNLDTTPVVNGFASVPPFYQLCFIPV
Sequence of CYP2C9 (P11712 whole entry): as above
Sequence of CYP2C19 (P33261 whole entry): as the sequence (P33261 whole entry) above

## CC(C)c1cc(C(=O)N2Cc3ccc(OCCCN4CCOCC4)cc3C2)c(O)cc1O
[1]
  pKa: 6.9
hERG (KCNH2) [2]
  inhibition at 3 µM: 51%
hERG (KCNH2) [3]
  inhibition at 30 µM: 95%
physchem
  logD: 3.3

## CC(C)c1c(O)cc(O)c(C(=O)N2Cc3ccccc3C2)c1F
HCT-116 [4]
  Activity: 60%
HCT-116 [5]
  Activity: Not toxic

## CC(C)c1cc(C(=O)N2Cc3ccccc3C2)c(O)c(F)c1O
HCT-116 [4]
  Activity: 60%
HCT-116 [5]
  Activity: inactive
[6]
  CL: 0.00024 L/h/kg

## CC(C)c1cc(C(=O)N2Cc3ccc(OCCNC4CCCC4)cc3C2)c(O)cc1O
hERG (KCNH2) [2]
  inhibition at 3 µM: 60%
hERG (KCNH2) [3]
  inhibition at 30 µM: 97%

## CC(C)c1cc(C(=O)N2Cc3ccc(C4(O)CCN(C)CC4)cc3C2)c(O)cc1O
[7]
  solubility: 15 mg/mL (≈ 36.5 mM)
[1]
  pKa: 9.4
[8]
  fraction unbound at 6 h: 0.36
[9]
  solubility: > 30 mg/mL
hERG (KCNH2) [2]
  inhibition at 3 µM: 15%
[10]
  Stability: Stable
[11]
  solubility: > 30 mg/mL
[12]
  solubility: > 30 mg/mL
[13]
  Stability: Stable
hERG (KCNH2) [3]
  inhibition at 30 µM: 34%
[14]
  Stability: Unstable
physchem
  logD: 1.7
[15]
  Stability: Stable

## CC(C)c1cc(C(=O)N2Cc3ccc(CN4CCN(C)CC4)cc3C2)c(O)cc1O [ONALESPIB]
HCT-116 [16]
  Activity: Active
[7]
  solubility: 15 mg/mL (≈ 36.6 mM)
[17]
  bioavailability: 31%
[18]
  half-life: 65 h
HCT-116 [19]
  inhibition in vivo at 60 mg/kg: 78%
[1]
  pKa: 7.7
[8]
  fraction unbound at 6 h: 0.36
[9]
  solubility: > 30 mg/mL
[20]
  Vd: 11 L/kg
hERG (KCNH2) [2]
  inhibition at 3 µM: 7%
HCT-116 [21]
  Activity: Active
[10]
  Stability: Stable
CYP2C9
  inhibition at 10 µM: < 50%
[22]
  fraction unbound at 6 h: 0.09
[11]
  solubility: > 30 mg/mL
[12]
  solubility: > 30 mg/mL
[6]
  CL: 0.00276 L/h/kg
CYP2C19
  inhibition at 10 µM: < 50%
[13]
  Stability: Stable
[23]
  half-life: 0.9 h
hERG (KCNH2) [3]
  inhibition at 30 µM: 42%
[14]
  Stability: Stable
physchem
  logD: 2.7
[24]
  half-life: 4.7 h
HCT-116 [25]
  inhibition in vivo at 60 mg/kg: 22%
[26]
  clearance: 6.78 L/h/kg
[27]
  half-life: 3 h
[15]
  Stability: Stable
HCT-116 [28]
  Activity: Active

## CC(C)c1cc(C(=O)N2Cc3ccc(C(=O)N4CCN(C)CC4)cc3C2)c(O)cc1O
[1]
  pKa: 6.8
[8]
  fraction unbound at 6 h: 0.36
hERG (KCNH2) [2]
  inhibition at 3 µM: 21%
[22]
  fraction unbound at 6 h: 0.29
hERG (KCNH2) [3]
  inhibition at 30 µM: 49%
physchem
  logD: 2.1

## CC(C)c1cc(C(=O)N2Cc3cccc(N4CCN(C)CC4)c3C2)c(O)cc1O
hERG (KCNH2) [2]
  inhibition at 3 µM: 41%
CYP3A4
  inhibition at 10 µM: < 50%
hERG (KCNH2) [3]
  inhibition at 30 µM: 87%

## CC(C)c1cc(C(=O)N2Cc3ccc(OCCN)cc3C2)c(O)cc1O
hERG (KCNH2) [2]
  inhibition at 3 µM: 11%
Cytochrome P450 2C9
  Activity: Active
hERG (KCNH2) [3]
  inhibition at 30 µM: 64%
Cytochrome P450 2C19
  Activity: Active

## CC(C)c1cc(C(=O)N2Cc3ccc(N4CCNCC4)cc3C2)c(O)cc1O
[1]
  pKa: 8.4
[8]
  fraction unbound at 6 h: 0.36
hERG (KCNH2) [2]
  inhibition at 3 µM: 13%
hERG (KCNH2) [3]
  inhibition at 30 µM: 70%
physchem
  logD: 1.6

## CC(C)c1cc(C(=O)N2Cc3cccc(OCCN(C)C)c3C2)c(O)cc1O
hERG (KCNH2) [2]
  inhibition at 3 µM: 43%
CYP3A4
  inhibition at 10 µM: < 50%
hERG (KCNH2) [3]
  inhibition at 30 µM: 93%

Reference: ChEMBL document CHEMBL1212880, “Discovery of (2,4-dihydroxy-5-isopropylphenyl)-[5-(4-methylpiperazin-1-ylmethyl)-1,3-dihydroisoindol-2-yl]methanone (AT13387), a novel inhibitor of the molecular chaperone Hsp90 by fragment based drug design” (J Med Chem, 2010)
